This is an account of results in US8426437B2, “Pyrroloquinoline derivatives and their use as protein kinases inhibitors” (Pierre Fabre Medicament, priority 2005, dated 2013).

Where a name gives a salt, the structure may show the parent alone. Some results are limits rather than exact numbers.

Format in all cases: biochemical
One assay has as its target T1, RET (Homo sapiens, UniProt P07949).
T1 construct: purchased Upstate 14-570MG
The experiment in a line: Inhibition of RET kinase activity, recombinant RET method (Kinase-Glo). The conditions noted are these: RET 2 μg/ml, poly-EY4 substrate, 20 μM ATP, two hours at 30° C. In short, it runs like this:
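Recombinant RET at 2 μg/ml in 20 mM MOPS/NaOH pH 7.0, 1 mM EDTA, 5% glycerol, 0.01% Brij35, 0.1% 2-mercaptoethanol, 1 mg/ml BSA; compounds 10 nM–30 μM final.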
(Kinase-Glo measures the ATP left after a reaction by luminescence.)

Another assay deals with T2, PIM-1 (Homo sapiens, UniProt P11309).
T2 construct: purchased Upstate 14-573
T2 sequence (P11309 whole entry): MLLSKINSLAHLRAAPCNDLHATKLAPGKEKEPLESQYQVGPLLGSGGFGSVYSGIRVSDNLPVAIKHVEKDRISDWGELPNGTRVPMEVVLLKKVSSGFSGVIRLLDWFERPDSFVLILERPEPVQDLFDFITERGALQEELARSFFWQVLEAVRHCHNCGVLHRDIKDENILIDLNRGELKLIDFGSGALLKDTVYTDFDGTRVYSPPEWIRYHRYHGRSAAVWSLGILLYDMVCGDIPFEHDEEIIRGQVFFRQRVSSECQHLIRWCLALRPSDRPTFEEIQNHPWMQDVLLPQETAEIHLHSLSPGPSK
The experiment in a line: Inhibition of kinase PIM-1 (Kinase-Glo). To be noted: PIM-1 0.625 μg/ml, 10 μM ATP, forty minutes at 30° C. Put shortly: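 PIM-1 (0.625 μg/ml) in MOPS/NaOH pH 7 with Mg acetate was run with 70 μM S6 kinase/Rsk2 peptide and 10 μM ATP, with compound at 10 nM–30 μM final.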

In the next assay the target is ALK (Homo sapiens, UniProt Q9UM73). The assay can be described thus: Inhibition of kinase ALK (PLCγ1-GST substrate, anti-phosphotyrosine ELISA). To be noted: ALK 180 ng/ml, 250 μM ATP, 30 minutes at 30° C. How it is done:
Incubation is carried out for 30 minutes at 30° C. with agitation.
The signal is read in luminescent mode using a luminometer.
In general terms: An ELISA detects its analyte on a solid surface through an enzyme-linked reagent.

A further assay deals with T3, TrkB (Homo sapiens, UniProt Q16620).
T3 construct: purchased Upstate 14-507
T3 sequence (Q16620 32-822): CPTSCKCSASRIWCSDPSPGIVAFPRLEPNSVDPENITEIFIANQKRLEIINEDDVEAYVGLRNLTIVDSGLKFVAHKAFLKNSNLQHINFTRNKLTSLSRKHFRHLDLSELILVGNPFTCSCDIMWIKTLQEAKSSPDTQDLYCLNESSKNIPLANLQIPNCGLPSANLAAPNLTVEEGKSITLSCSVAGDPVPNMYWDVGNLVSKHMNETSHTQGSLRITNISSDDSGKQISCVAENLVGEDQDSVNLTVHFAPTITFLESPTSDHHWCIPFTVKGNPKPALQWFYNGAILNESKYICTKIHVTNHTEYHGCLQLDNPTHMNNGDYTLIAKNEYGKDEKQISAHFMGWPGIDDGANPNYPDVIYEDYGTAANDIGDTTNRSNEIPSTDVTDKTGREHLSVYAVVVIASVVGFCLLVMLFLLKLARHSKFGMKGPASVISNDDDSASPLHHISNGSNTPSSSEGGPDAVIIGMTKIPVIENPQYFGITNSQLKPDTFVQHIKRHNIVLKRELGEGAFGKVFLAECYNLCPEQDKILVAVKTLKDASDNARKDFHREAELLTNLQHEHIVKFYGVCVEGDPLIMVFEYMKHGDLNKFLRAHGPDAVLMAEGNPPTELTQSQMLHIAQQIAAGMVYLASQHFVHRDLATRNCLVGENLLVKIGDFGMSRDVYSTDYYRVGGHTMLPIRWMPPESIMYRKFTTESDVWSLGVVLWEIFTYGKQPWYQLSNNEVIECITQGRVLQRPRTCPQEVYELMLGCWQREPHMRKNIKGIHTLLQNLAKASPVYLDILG
The experiment in a line: Inhibition of kinase TrkB (Kinase-Glo). To be noted: TrkB 4 μg/ml, 40 μM ATP, two hours at 30° C. In short, it runs like this:
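TrkB at 4 μg/ml with 2.5 mg/ml poly-EY and 40 μM ATP in MOPS/NaOH pH 7 buffer with MgAc, EDTA, DTT, vanadate and glycerophosphate; compounds at final 10 nM–30 μM. After 2 h at 30°C, remaining ATP measured by Kinase-Glo luminescence.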

In the next assay the target is T4, TrkA (Homo sapiens, UniProt P04629).
T4 construct: purchased Upstate 14-571
T4 sequence (P04629 33-796): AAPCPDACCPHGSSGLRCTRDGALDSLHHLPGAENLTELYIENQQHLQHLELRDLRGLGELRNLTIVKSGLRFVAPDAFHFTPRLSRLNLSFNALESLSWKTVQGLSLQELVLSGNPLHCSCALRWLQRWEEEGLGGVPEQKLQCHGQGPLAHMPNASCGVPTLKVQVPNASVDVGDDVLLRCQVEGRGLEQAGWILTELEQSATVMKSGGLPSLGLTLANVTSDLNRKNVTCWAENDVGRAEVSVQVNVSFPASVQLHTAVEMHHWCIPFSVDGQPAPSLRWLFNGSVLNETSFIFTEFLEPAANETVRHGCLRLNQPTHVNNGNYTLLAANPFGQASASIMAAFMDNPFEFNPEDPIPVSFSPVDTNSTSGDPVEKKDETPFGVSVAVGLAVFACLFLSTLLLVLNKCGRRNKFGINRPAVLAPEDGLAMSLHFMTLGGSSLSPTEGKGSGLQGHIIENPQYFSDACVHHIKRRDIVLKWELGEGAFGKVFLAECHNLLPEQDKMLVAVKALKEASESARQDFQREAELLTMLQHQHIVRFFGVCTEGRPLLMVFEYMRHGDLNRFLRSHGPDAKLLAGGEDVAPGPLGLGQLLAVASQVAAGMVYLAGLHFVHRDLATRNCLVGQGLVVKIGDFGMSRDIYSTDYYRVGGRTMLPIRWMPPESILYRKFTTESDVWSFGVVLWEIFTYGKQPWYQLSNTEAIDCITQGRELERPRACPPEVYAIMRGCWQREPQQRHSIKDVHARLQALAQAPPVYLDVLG
The assay can be described thus: Inhibition of kinase TrkA (Kinase-Glo). The conditions noted are these: TrkA 4 μg/ml, 30 μM ATP, two hours at 30° C. Put shortly: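 TrkA (4 μg/ml) was incubated with 1 mg/ml poly-EY and 30 μM ATP in MOPS pH 7 buffer with Mg acetate, DTT and vanadate, compounds at 10 nM–30 μM final, for 2 h at 30 °C. Remaining ATP was quantified by Kinase-Glo luminescence.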

T1 sequence (P07949 29-1114): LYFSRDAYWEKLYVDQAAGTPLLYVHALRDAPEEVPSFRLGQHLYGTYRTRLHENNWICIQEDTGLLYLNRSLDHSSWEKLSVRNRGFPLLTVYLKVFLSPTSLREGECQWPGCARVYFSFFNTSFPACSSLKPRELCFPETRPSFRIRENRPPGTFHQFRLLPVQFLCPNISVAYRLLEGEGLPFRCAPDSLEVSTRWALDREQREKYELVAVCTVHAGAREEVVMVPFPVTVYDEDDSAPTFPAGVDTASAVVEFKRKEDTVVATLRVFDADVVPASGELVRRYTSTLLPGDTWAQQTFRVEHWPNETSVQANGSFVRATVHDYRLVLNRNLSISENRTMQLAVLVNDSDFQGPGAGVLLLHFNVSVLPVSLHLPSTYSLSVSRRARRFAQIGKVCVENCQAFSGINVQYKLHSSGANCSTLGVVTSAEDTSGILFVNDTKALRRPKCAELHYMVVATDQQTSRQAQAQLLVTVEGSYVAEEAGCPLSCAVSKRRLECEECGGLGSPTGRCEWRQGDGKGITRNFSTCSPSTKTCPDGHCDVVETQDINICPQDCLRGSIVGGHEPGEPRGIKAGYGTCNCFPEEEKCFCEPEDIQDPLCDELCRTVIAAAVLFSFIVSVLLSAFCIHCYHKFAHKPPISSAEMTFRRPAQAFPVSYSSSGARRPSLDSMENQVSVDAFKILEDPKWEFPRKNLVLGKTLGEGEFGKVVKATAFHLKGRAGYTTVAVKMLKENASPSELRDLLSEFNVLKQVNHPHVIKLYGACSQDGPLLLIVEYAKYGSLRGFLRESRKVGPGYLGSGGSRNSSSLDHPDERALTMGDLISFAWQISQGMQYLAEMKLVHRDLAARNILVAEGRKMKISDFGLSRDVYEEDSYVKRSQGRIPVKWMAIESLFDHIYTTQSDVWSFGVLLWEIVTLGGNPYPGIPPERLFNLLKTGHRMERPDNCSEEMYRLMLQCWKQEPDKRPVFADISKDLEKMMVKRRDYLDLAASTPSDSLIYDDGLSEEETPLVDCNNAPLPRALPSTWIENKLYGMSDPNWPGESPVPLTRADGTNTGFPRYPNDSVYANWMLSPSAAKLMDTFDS
Chain of ALK (Q9UM73 19-1620, species assumed): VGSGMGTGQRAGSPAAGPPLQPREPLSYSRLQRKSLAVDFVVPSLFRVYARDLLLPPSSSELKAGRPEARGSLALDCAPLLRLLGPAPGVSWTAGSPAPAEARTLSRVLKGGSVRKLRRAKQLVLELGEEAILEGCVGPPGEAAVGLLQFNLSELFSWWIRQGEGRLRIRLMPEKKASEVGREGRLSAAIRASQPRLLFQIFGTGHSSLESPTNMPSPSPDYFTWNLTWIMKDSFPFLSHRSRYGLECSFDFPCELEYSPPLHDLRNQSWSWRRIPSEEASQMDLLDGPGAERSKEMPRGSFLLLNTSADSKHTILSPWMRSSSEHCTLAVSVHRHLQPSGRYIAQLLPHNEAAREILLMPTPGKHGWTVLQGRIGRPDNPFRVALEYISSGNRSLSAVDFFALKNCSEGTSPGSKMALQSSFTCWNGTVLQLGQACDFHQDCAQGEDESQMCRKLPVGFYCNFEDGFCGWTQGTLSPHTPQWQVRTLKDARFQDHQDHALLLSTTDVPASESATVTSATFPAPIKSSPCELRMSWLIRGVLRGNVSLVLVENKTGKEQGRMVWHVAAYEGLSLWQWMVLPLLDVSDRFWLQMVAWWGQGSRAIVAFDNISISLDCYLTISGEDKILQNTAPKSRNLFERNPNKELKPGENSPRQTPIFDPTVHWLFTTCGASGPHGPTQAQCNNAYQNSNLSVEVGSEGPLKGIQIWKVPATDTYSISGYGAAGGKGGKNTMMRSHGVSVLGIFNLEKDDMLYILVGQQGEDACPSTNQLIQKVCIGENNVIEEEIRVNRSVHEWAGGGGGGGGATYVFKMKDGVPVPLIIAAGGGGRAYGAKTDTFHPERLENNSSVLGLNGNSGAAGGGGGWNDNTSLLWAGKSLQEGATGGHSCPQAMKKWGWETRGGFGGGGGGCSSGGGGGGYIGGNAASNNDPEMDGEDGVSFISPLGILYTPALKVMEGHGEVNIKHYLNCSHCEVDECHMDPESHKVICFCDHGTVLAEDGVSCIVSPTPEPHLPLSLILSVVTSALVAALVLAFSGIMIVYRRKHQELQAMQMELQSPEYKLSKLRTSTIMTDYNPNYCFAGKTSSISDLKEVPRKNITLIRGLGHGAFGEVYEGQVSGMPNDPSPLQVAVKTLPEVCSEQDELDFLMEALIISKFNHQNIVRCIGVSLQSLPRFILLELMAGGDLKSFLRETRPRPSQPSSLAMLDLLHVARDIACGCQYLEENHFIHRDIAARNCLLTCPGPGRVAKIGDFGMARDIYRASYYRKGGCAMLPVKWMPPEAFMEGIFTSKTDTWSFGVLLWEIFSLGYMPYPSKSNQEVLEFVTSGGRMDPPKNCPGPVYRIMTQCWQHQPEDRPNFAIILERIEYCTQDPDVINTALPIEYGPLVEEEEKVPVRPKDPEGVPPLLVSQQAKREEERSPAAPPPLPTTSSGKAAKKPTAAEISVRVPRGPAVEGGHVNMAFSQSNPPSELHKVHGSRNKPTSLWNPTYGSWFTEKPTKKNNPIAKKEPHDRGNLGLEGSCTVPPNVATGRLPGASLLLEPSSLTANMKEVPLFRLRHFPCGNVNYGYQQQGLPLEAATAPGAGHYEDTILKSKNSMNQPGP

With `CCOC(=O)c1c[nH]c2c(=O)[nH]c3ccc(S(=O)(=O)NCCCN(C)C)cc3c12` [Compound 32, 8-(3-Dimethylamino-propylsulfamoyl)-4-oxo-4,5-dihydro-3H-pyrrolo[2,3-c]quinoline-1-ethyl carboxylate], the IC50 (as a rule, the point on the concentration scale where inhibition reaches its midpoint) on RET fell in the range of 100 to 1000 nM; at PIM-1, 10000 to 100000 nM; at ALK, 10000 to 100000 nM.
In the case of `CCOC(=O)c1c[nH]c2c(=O)[nH]c3ccc(S(=O)(=O)NCCCCN)cc3c12` [Compound 33, 8-(4-Amino-butylsulfamoyl)-4-oxo-4,5-dihydro-3H-pyrrolo[2,3-c]quinoline-1-ethyl carboxylate], the IC50 on RET was 100 to 1000 nM; against PIM-1, 10000 to 100000 nM; at ALK it was 1000 to 10000 nM.
Taken in the same sequence, the figures for `CCOC(=O)c1c[nH]c2c(=O)[nH]c3ccc(S(=O)(=O)NC4CCNCC4)cc3c12` [Compound 91, 4-oxo-8-(piperidin-4-ylsulfamoyl)-4,5-dihydro-3H-pyrrolo[2,3-c]quinoline-1-ethyl carboxylate] were 100 to 1000 nM, 1000 to 10000 nM and 100 to 1000 nM.
As for `CCOC(=O)c1c[nH]c2c(=O)[nH]c3ccc(S(=O)(=O)N4CC5CNCC5C4)cc3c12` (stereo not shown) [Compound 93, 8-(Octahydro-pyrrolo[3,4-c]pyrrole-2-sulfonyl)-4-oxo-4,5-dihydro-3H-pyrrolo[2,3-c]quinoline-1-ethyl carboxylate], the half-inhibitory concentration (IC50) on RET is 100 to 1000 nM; against PIM-1 it was 1000 to 10000 nM; at ALK it was 100 to 1000 nM.
Turning to `CCOC(=O)c1c[nH]c2c(=O)[nH]c3ccc(S(=O)(=O)NC[C@H]4CCNC4)cc3c12` [Compound 97, (S)-4-Oxo-8-[(pyrrolidin-3-methyl)-sulfamoyl]-4,5-dihydro-3H-pyrrolo[2,3-c]quinoline-1-ethyl carboxylate], the IC50 fell in the range of 100 to 1000 nM at RET, 10000 to 100000 nM against PIM-1 and 100 to 1000 nM at ALK.
Turning to `COC(=O)c1c[nH]c2c(=O)[nH]c3ccc(S(=O)(=O)NC4CCCNC4)cc3c12` (stereo not shown) [Compound 112, 4-Oxo-8-(piperidin-3-ylsulfamoyl)-4,5-dihydro-3H-pyrrolo[2,3-c]quinoline-1-methyl carboxylate], the results for the IC50 at RET, against PIM-1 and at ALK were 1000 to 10000 nM, 1000 to 10000 nM and 100 to 1000 nM, respectively.
For `COC(=O)c1c[nH]c2c(=O)[nH]c3ccc(S(=O)(=O)NC4CCNCC4)cc3c12` [Compound 113, 4-Oxo-8-(piperidin-4-ylsulfamoyl)-4,5-dihydro-3H-pyrrolo[2,3-c]quinoline-1-methyl carboxylate], the figures for the IC50 on RET, against PIM-1 and at ALK were 100 to 1000 nM, 1000 to 10000 nM and 1000 to 10000 nM, respectively.
As for `CCCOC(=O)c1c[nH]c2c(=O)[nH]c3ccc(S(=O)(=O)N(C[C@@H]4CCCN4C)C4CC4)cc3c12` [Compound 145, (S)-8-[Cyclopropyl-(1-methyl-pyrrolidin-2-ylmethyl)sulfamoyl]-4-oxo-4,5-dihydro-3H-pyrrolo[2,3-c]quinoline-1-propyl carboxylate], the figures for the IC50 on RET and against ALK were 100 to 1000 nM and 1000 to 10000 nM, respectively.
Consider `CCCOC(=O)c1c[nH]c2c(=O)[nH]c3ccc(S(=O)(=O)N(C[C@@H]4CCCN4)C(C)C)cc3c12` [Compound 149, (S)-8-(Isopropyl-pyrrolidin-2-ylmethyl-sulfamoyl)-4-oxo-4,5-dihydro-3H-pyrrolo[2,3-c]quinoline-1-propyl carboxylate hydrochloride], for which the IC50 on RET is under 100 nM; at ALK it was 100 to 1000 nM.
In the case of `C#CCN(C[C@@H]1CCCN1)S(=O)(=O)c1ccc2[nH]c(=O)c3[nH]cc(C(=O)OCCC)c3c2c1` [Compound 150, (S)-4-Oxo-8-(prop-2-ynyl-pyrrolidin-2-ylmethyl-sulfamoyl)-4,5-dihydro-3H-pyrrolo[2,3-c]quinoline-1-propyl carboxylate hydrochloride], the IC50 is under 100 nM at RET and 100 to 1000 nM against ALK.
In the case of `CCCOC(=O)c1c[nH]c2c(=O)[nH]c3ccc(S(=O)(=O)N(C[C@H](C)N)C4CC4)cc3c12` [Compound 153, (S)-8-[(2-Amino-propyl)-cyclopropyl-sulfamoyl]-4-oxo-4,5-dihydro-3H-pyrrolo[2,3-c]quinoline-1-propyl carboxylate hydrochloride], the IC50 is under 100 nM at RET and 100 to 1000 nM against ALK.
Consider `CCCOC(=O)c1c[nH]c2c(=O)[nH]c3ccc(S(=O)(=O)N(C[C@@H](C)N)C4CC4)cc3c12` [Compound 155, (R)-8-[(2-Amino-propyl)-cyclopropyl-sulfamoyl]-4-oxo-4,5-dihydro-3H-pyrrolo[2,3-c]quinoline-1-propyl carboxylate hydrochloride], for which the IC50 at RET was under 100 nM; against ALK it was 100 to 1000 nM.
As for `CCCOC(=O)c1c[nH]c2c(=O)[nH]c3ccc(S(=O)(=O)N(C)CC(N)=O)cc3c12` [Compound 177, 8-(Carbamoylmethyl-methyl-sulfamoyl)-4-oxo-4,5-dihydro-3H-pyrrolo[2,3-c]quinoline-1-propyl carboxylate], the IC50 on RET and on ALK was 100 to 1000 nM throughout.
`CCOC(=O)c1c[nH]c2c(=O)[nH]c3ccc(C(=O)N(C[C@@H]4CCCN4)C4CC4)cc3c12` [Compound 219, (S)-8-(cyclopropyl-pyrrolidin-2-ylmethyl-carbamoyl), 3-oxo-4,5-dihydro-3H-pyrrolo[2,3-c]quinoline-1-ethyl carboxylate hydrochloride]: the IC50 on RET and on ALK was 1000 to 10000 nM each time.
On to `CCOC(=O)c1c[nH]c2c(=O)[nH]c3ccc(-c4csc(Nc5ccccc5)n4)cc3c12` [Compound 271, 4-Oxo-8-(2-phenylamino-thiazol-4-yl)-4,5-dihydro-3H-pyrrolo[2,3-c]quinoline-1-ethyl carboxylate], for which the IC50 at RET was 100 to 1000 nM; on TrkB it was 1000 to 10000 nM; on TrkA, 1000 to 10000 nM; against PIM-1 it was 10000 to 100000 nM; against ALK it was 100 to 1000 nM.
